Assay results as given in patent US20250313563A1, “GLYCOGEN SYNTHASE KINASE 3 INHIBITORS AND USES THEREOF” (The Broad Institute, Inc., priority 2022, published 2025).
Like-named read-outs stand apart in the source and are kept apart here.

Tests used:
[1] = molecular target: GSK3α (GST-full length GSK3α) (Homo sapiens (Human), UniProt P49840); assay: GSK3α TR-FRET kinase assay; format: biochemical
Description: (§1) TR-FRET Assay: The assay was performed in a white, 384 well, low volume, flat bottom plate (Grenier). After a 30 minute preincubation in assay buffer with the indicated concentration of compound, the kinase activity was initiated by the addition of the substrates. 1 nM GSK3α (GST-full length GSK3α [SignalChem G08-10G]) or 1 nM GSK3b (GST-full length GSK3b: [SignalChem G08-9G]) were then incubated at ambient temperature for 100 minutes in 10 μL of 50 mM Tris, pH 7.5, 20 mM MgCl2, 0.05 mM DTT, 100 μg/mL BSA and 1% DMSO, with 200 nM biotinylated peptide substrate (biotinylated and S645 phosphorylated glycogen synthase 631-650) and either 4 μM ATP (GSK3α, Table 16) or 2 μM ATP (GSK3b, Table 16) or 1 mM ATP (Table 17). The kinase activity was quenched with 2 μL of 250 mM EDTA. A 10 μL volume of 40 nM Strepavidin-d2, 2 nM Tb^2+-pSer641 antibody in TR-FRET Detection Buffer (Invitrogen) was then added. After 60 min at room temperature the plate was read on Envision plate reader using Ex: 340 nm, Em: 615 nm and […]. The normalized 665/615 Signal ratio versus log compound concentration was analyzed by XLFIT to yield IC50 values.

[2] = molecular target: GSK3b (GST-full length GSK3b) (Homo sapiens (Human), UniProt P49841); assay: GSK3b TR-FRET kinase assay; format: biochemical
Sequence of GSK3b (GST-full length GSK3b) (P49841 whole entry): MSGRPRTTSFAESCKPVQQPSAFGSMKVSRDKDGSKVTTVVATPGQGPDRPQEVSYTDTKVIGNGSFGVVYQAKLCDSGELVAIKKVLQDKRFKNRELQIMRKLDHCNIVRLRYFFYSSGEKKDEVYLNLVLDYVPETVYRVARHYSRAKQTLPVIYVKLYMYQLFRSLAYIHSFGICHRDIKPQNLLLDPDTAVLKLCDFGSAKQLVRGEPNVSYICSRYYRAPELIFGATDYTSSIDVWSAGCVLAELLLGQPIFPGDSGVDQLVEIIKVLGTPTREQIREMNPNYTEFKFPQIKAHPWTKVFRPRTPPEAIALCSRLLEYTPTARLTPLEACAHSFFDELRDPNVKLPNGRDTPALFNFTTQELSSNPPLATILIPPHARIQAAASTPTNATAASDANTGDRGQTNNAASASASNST
Description: as §1

[3] = read-out: GSK3-A (TR-FRET 1 mM ATP), GMean, IC50, 1 mM ATP, geometric mean
[4] = read-out: GSK3-B (TR-FRET 1 mM ATP), GMean, IC50, 1 mM ATP, geometric mean
[5] = 1 nM GSK3α, 4 μM ATP, 30 minute preincubation, geometric mean, read-out: GSK3-A TR-FRET BIOCHEMICAL (TR-FRET), GMean, IC50
[6] = 1 nM GSK3b, 2 μM ATP, 30 minute preincubation, geometric mean, read-out: GSK3-B TR-FRET BIOCHEMICAL (TR-FRET), GMean, IC50
[7] = 1 nM GSK3α, 4 μM ATP, 30 minute preincubation, Table 16, read-out: GSK3-A TR-FRET BIOCHEMICAL (TR-FRET)
[8] = 1 nM GSK3b, 2 μM ATP, 30 minute preincubation, Table 16, read-out: GSK3-B TR-FRET BIOCHEMICAL (TR-FRET)

Sequence of GSK3α (GST-full length GSK3α) (P49840 whole entry): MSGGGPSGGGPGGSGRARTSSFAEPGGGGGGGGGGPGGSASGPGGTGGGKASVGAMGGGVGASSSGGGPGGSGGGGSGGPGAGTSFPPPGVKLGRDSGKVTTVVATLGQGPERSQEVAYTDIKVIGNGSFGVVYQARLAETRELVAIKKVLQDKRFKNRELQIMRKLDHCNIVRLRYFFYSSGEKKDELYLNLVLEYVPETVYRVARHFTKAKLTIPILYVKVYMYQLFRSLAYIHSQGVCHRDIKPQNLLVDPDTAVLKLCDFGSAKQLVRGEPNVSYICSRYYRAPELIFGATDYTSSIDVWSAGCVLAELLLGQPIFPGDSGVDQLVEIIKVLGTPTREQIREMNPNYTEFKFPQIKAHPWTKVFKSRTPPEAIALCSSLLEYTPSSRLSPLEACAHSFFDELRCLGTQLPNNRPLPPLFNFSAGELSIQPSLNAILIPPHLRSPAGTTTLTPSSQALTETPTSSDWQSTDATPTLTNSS

Row | Compound | IC50 [1, 5] [nM] | IC50 [2, 6] [nM] | other results
1 | Cn1cncc1-c1cccc([C@@]2(C)C3=C(CC(C)(C)CC3=O)Nc3n[nH]c(CC(C)(C)C)c32)c1 [Compound 126015] |  |  | IC50 [1, 3]: > 5000 nM; IC50 [2, 4]: > 5000 nM
2 | C[S+]([O-])c1cccc(C2(C)C3=C(CC(C)(C)CC3=O)Nc3n[nH]c(CC(C)(C)C)c32)c1 (stereo not drawn) [Compound 126191] |  |  | IC50 [1, 3]: > 5000 nM; IC50 [2, 4]: 100 to 1000 nM
3 | Cn1cc(-c2cccc([C@@]3(C)C4=C(CC(C)(C)CC4=O)Nc4n[nH]c(CC(C)(C)C)c43)c2)cn1 [Compound 126367] |  |  | IC50 [1, 3]: > 5000 nM; IC50 [2, 4]: > 5000 nM
4 | CC(C)(C)Cc1[nH]nc2c1[C@@](C)(c1cccc(S(=O)(=O)C(F)(F)F)c1)C1=C(CC(C)(C)CC1=O)N2 [Compound 126396] |  |  | IC50 [1, 3]: > 5000 nM; IC50 [2, 4]: > 5000 nM
5 | CC1(C)CC(=O)C2=C(C1)Nc1n[nH]c(C3CC(F)(F)C3)c1C21COc2ccccc21 (stereo not drawn) [Compound 127429] |  |  | IC50 [1, 3]: > 5000 nM; IC50 [2, 4]: 1000 to 5000 nM
6 | CCC1(c2ccc(F)cc2)C2=C(CC(C)(C)CC2=O)Nc2n[nH]cc21 (stereo not drawn) [Compound 772965] | 1000 to 5000 | > 5000 | 
7 | CCC1(CC)C2=C(CC(C)(C)CC2=O)Nc2n[nH]c(C)c21 [Compound 786061] |  |  | IC50 [1, 7]: 100 to 1000 nM; IC50 [2, 8]: > 1670 nM
8 | CC1(C)CC(=O)C2=C(C1)Nc1n[nH]cc1C2(C)C [Compound 786065] |  |  | IC50 ([1]; 1 nM GSK3α, 4 μM ATP, 30 minute preincubation, Table 16, read-out: GSK3-A TR-FRET BIOCHEMICAL (TR-FRET), IC50): 1000 to 5000 nM; IC50 ([2]; 1 nM GSK3b, 2 μM ATP, 30 minute preincubation, Table 16, read-out: GSK3-B TR-FRET BIOCHEMICAL (TR-FRET), IC50): > 1670 nM
9 | Cc1[nH]nc2c1C1(CCCC1)C1=C(CC(C)(C)CC1=O)N2 [Compound 786072] |  |  | IC50 [1, 7]: ≤ 100 nM; IC50 [2, 8]: ≤ 100 nM
10 | C[C@@H]1CC(=O)C2=C(C1)Nc1n[nH]cc1[C@@]2(C)c1ccccc1 [Compound 789333] | > 5000 | > 5000 | 
11 | CC[C@]1(c2ccc(C)cc2)C2=C(CC(C)(C)CC2=O)Nc2n[nH]cc21 [Compound 789458] | > 5000 | > 5000 | 
12 | CC1(C)CC(=O)C2=C(C1)Nc1n[nH]cc1C2(c1ccccc1)c1ccccc1 [Compound 789461] | 1000 to 5000 | > 5000 | 
13 | CCC1(c2ccccc2)C2=C(CCCC2=O)Nc2n[nH]cc21 (stereo not drawn) [Compound 789497] | 1000 to 5000 | > 5000 | 
14 | CC[C@]1(c2cccc(C)c2)C2=C(CC(C)(C)CC2=O)Nc2n[nH]cc21 [Compound 789561] | 1000 to 5000 | > 5000 | 
15 | CC[C@]1(c2ccccc2)C2=C(CC3(CCCC3)CC2=O)Nc2n[nH]cc21 [Compound 789563] | > 5000 | > 5000 | 
16 | CCC1(c2cccc(Cl)c2)C2=C(CC(C)(C)CC2=O)Nc2n[nH]c(C)c21 (stereo not drawn) [Compound 790611] | > 5000 | > 5000 | 
17 | CC[C@]1(c2ccccc2)C2=C(CC3(CC3)CC2=O)Nc2n[nH]cc21 [Compound 790616] | > 5000 | > 5000 | 
18 | CCC1(c2ccn(C)n2)C2=C(CC(C)(C)CC2=O)Nc2n[nH]cc21 (stereo not drawn) [Compound 790619] | 1000 to 5000 | > 5000 | 
19 | CC1(C)CC(=O)C2=C(C1)Nc1n[nH]c(C(F)(F)F)c1C21CCCOc2ccccc21 (stereo not drawn) [Compound 790632] | > 5000 | > 5000 | 
20 | CC1(C)CC(=O)C2=C(C1)Nc1n[nH]cc1C21CCCC1 [Compound 790666] |  |  | IC50 [1, 7]: ≤ 100 nM; IC50 [2, 8]: ≤ 100 nM
21 | CCC1(c2cccc(Br)c2)C2=C(CC(C)(C)CC2=O)Nc2n[nH]cc21 (stereo not drawn) [Compound 790734] | 100 to 1000 | > 5000 | 
22 | CC[C@]1(c2ccccc2)C2=C(C[C@H](c3ccccc3)CC2=O)Nc2n[nH]cc21 [Compound 791262] | > 5000 | > 5000 | 
23 | CC[C@@]1(c2ccccc2)C2=C(C[C@H](c3ccccc3)CC2=O)Nc2n[nH]cc21 [Compound 791263] | > 5000 | > 5000 | 

Second part, led by results:

Row | IC50 [1, 5] [nM] | IC50 [2, 6] [nM] | Compound | other results
24 | 100 to 1000 | > 5000 | CC1(C)CC(=O)C2=C(C1)Nc1n[nH]cc1C2(C)c1cc(F)cc(F)c1 (stereo not drawn) [Compound 785735] | 
25 | ≤ 100 | 100 to 1000 | Cc1cccc(C2(C)C3=C(CC(C)(C)CC3=O)Nc3n[nH]cc32)c1 (stereo not drawn) [Compound 785736] | 
26 | ≤ 100 | 100 to 1000 | CCC1(c2ccccc2)C2=C(CC3(CCCC3)CC2=O)Nc2n[nH]cc21 (stereo not drawn) [Compound 785737] | 
27 | ≤ 100 | 100 to 1000 | CCC1(c2cccc(C)c2)C2=C(CC(C)(C)CC2=O)Nc2n[nH]cc21 (stereo not drawn) [Compound 785738] | 
28 | 100 to 1000 | > 5000 | CCC1(c2ccc(C)cc2)C2=C(CC(C)(C)CC2=O)Nc2n[nH]cc21 (stereo not drawn) [Compound 785739] | 
29 | > 5000 | > 5000 | CC[C@@]1(c2ccccc2)C2=C(C[C@H](C)CC2=O)Nc2n[nH]cc21 [Compound 789009] | 
30 | 100 to 1000 | 100 to 1000 | CC[C@@]1(c2ccccc2)C2=C(C[C@@H](C)CC2=O)Nc2n[nH]cc21 [Compound 789010] | 
31 | > 5000 | > 5000 | CC[C@]1(c2ccccc2)C2=C(C[C@H](C)CC2=O)Nc2n[nH]cc21 [Compound 789011] | 
32 | 100 to 1000 | > 5000 | CC[C@]1(c2ccccc2)C2=C(C[C@H](C)CC2=O)Nc2n[nH]cc21 [Compound 789013] | 
33 | ≤ 100 | 100 to 1000 | CC1(C)CC(=O)C2=C(C1)Nc1n[nH]cc1C2(C)c1cccc(Br)c1 (stereo not drawn) [Compound 789277] | 
34 | ≤ 100 | 100 to 1000 | CCC1(c2cccc(Br)c2)C2=C(CC(C)(C)CC2=O)Nc2n[nH]cc21 (stereo not drawn) [Compound 789312] | 
35 | 100 to 1000 | 1000 to 5000 | CCC1(c2ccccc2)C2=C(CC3(CC3)CC2=O)Nc2n[nH]cc21 (stereo not drawn) [Compound 789330] | 
36 | > 5000 | > 5000 | C[C@@H]1CC(=O)C2=C(C1)Nc1n[nH]cc1[C@]2(C)c1ccccc1 [Compound 789331] | 
37 | 100 to 1000 | 100 to 1000 | C[C@H]1CC(=O)C2=C(C1)Nc1n[nH]cc1[C@]2(C)c1ccccc1 [Compound 789332] | 
38 | 100 to 1000 | 1000 to 5000 | C[C@H]1CC(=O)C2=C(C1)Nc1n[nH]cc1[C@@]2(C)c1ccccc1 [Compound 789334] | 
39 | 100 to 1000 | 1000 to 5000 | CC1(C)CC(=O)C2=C(C1)Nc1n[nH]cc1C2(C)c1cc(Cl)cc(Cl)c1 (stereo not drawn) [Compound 789337] | 
40 | 100 to 1000 | 1000 to 5000 | CC[C@@]1(c2ccc(C)cc2)C2=C(CC(C)(C)CC2=O)Nc2n[nH]cc21 [Compound 789457] | 
41 | ≤ 100 | ≤ 100 | CCC1(c2ccccc2)C2=C(CC(C)(C)CC2=O)Nc2n[nH]c(Br)c21 (stereo not drawn) [Compound 789459] | 
42 | 100 to 1000 | 100 to 1000 | CC1(c2ccccc2)C2=C(CC3(CCCC3)CC2=O)Nc2n[nH]cc21 (stereo not drawn) [Compound 789460] | 
43 | 100 to 1000 | 100 to 1000 | CC1(C)CC(=O)C2=C(C1)Nc1n[nH]cc1C2(C)c1cccc(-c2ccccc2)c1 (stereo not drawn) [Compound 789513] | 
44 | 100 to 1000 | 100 to 1000 | CCC1(c2cccc(-c3ccccc3)c2)C2=C(CC(C)(C)CC2=O)Nc2n[nH]cc21 (stereo not drawn) [Compound 789514] | 
45 |  | 100 to 1000 | CCC1(c2cccc(C)c2)C2=C(CC(C)(C)CC2=O)Nc2n[nH]cc21 (stereo not drawn) [Compound 789560] | IC50 [1, 3]: 1000 to 5000 nM; IC50 [2, 4]: > 5000 nM
46 | ≤ 100 | 100 to 1000 | CC[C@@]1(c2ccccc2)C2=C(CC3(CCCC3)CC2=O)Nc2n[nH]cc21 [Compound 789562] | 
47 | ≤ 100 | ≤ 100 | CCC1(c2cccc(Cl)c2)C2=C(CC(C)(C)CC2=O)Nc2n[nH]c(Br)c21 (stereo not drawn) [Compound 789564] | 
48 | ≤ 100 | 100 to 1000 | CC[C@@]1(c2ccccc2)C2=C(CC3(CC3)CC2=O)Nc2n[nH]cc21 [Compound 790615] | 
49 | ≤ 100 | ≤ 100 | CCC1(c2cccc(C(F)(F)F)c2)C2=C(CC3(CCCC3)CC2=O)Nc2n[nH]cc21 (stereo not drawn) [Compound 790617] | 
50 | ≤ 100 | 100 to 1000 | CC1(C)CC(=O)C2=C(C1)Nc1n[nH]cc1C2(C)c1cccc(-c2ccncc2)c1 (stereo not drawn) [Compound 790730] | 
51 | ≤ 100 | ≤ 100 | CCC1(c2cccc(Br)c2)C2=C(CC(C)(C)CC2=O)Nc2n[nH]cc21 (stereo not drawn) [Compound 790733] | IC50 [1, 3]: 100 to 1000 nM; IC50 [2, 4]: 1000 to 5000 nM
52 | ≤ 100 | ≤ 100 | CCC1(c2cccc(C(F)(F)F)c2)C2=C(CC(C)(C)CC2=O)Nc2n[nH]cc21 (stereo not drawn) [Compound 790754] | IC50 [1, 3]: 100 to 1000 nM; IC50 [2, 4]: 1000 to 5000 nM
53 | > 1700 | 1000 to 5000 | CC(C)(C)Cc1[nH]nc2c1C1(CCc3c(F)cccc31)C1=C(CC(C)(C)CC1=O)N2 (stereo not drawn) [Compound 791256] | 
